Series [1] concerns Mycobacterium tuberculosis H37Rv. Description: Microplate Alamar Blue Assay (MABA), microdilution panel method. It is filed as cell-based. Background: Alamar Blue is a resazurin reagent that responds to reducing activity.
Series [2] relates to Mycobacterium smegmatis CCM 4622 (ATCC 607). The series can be described thus: Antimycobacterial screening, microdilution broth panel method with resazurin. It is filed as cell-based. Conditions: Mycolicibacterium smegmatis, 48 h + 4 h. Here is the method: An antimycobacterial assay was performed with fast growing Mycobacterium smegmatis CCM 4622 (ATCC 607) from the Czech Collection of Microorganisms (Brno, Czech Republic). The technique used for activity determination was a microdilution broth panel method using 96-well microtitration plates. The culturing medium was Middlebrook 7H9 (MB) broth (Sigma-Aldrich), enriched with 0.4% of glycerol (Sigma-Aldrich) and 10% of Middlebrook OADC growth supplement (Himedia, Mumbai, India). Tested compounds were dissolved in DMSO (Sigma-Aldrich), and the MB broth was then added to obtain a concentration of 2000 μg·mL^−1. Standards used for activity determination were isoniazid (INH), rifampicin (RIF), and ciprofloxacin (CPX) (Sigma-Aldrich). Final concentrations were reached by binary dilution and the addition of mycobacterial suspension, and were set as 500, 250, 125, 62.5, 31.25, 15.625, 7.81, and 3.91 μg·mL^−1, except for the standards of ciprofloxacin and rifampicin, where the final concentrations were 12.5, 6.25, 3.125, 1.56, 0.78, 0.39, 0.195, and 0.098 μg·mL^−1. […] Plates were also sealed with polyester adhesive film and incubated in the dark at 37 °C, without agitation. The addition of 0.01% solution of resazurin sodium salt followed after 48 h. This stain was prepared by dissolving resazurin sodium salt (Sigma-Aldrich) in deionised water, producing a 0.02% solution. Then, a 10% aqueous solution of Tween 80 (Sigma-Aldrich) was prepared. Both liquids were mixed up making use of the same volumes and filtered through a syringe membrane filter. Microtitration panels were then incubated for a further 4 h. Antimycobacterial activity was expressed as the minimal inhibition concentration (MIC) and the value was read on the basis of stain colour change (blue colour—active compound; pink colour—not active compound). […] All experiments were conducted in duplicate.
A general note: In broth dilution the organism is exposed to a series of concentrations in liquid medium.

Series [3] is described as follows: Determination of lipophilicity by RP-HPLC (log k). Conditions: RP-HPLC capacity factor, MeOH 70% / H2O 30%, C18, 30 °C.
Method: Log k was determined using an Agilent Technologies 1200 SL liquid chromatograph with Diode-array Detector SL G1315C (Agilent Technologies Inc., Colorado Springs, CO, USA), with pre-column ZORBAX XDB-C18 5 μm, 4 mm × 4 mm, Part No. 7995118-504 (Agilent Technologies Inc.) and column ZORBAX Eclipse XDB-C18 5 μm, 4.6 mm × 250 mm, Part No. 7995118-585 (Agilent Technologies Inc.). The separation process was controlled by Agilent ChemStation, version B.04.02, extended by a spectral module (Agilent Technologies Inc.). The mobile phase consisted of MeOH (HPLC grade, 70%) and H2O (HPLC-Milli-Q Grade, 30%).
The flow rate was 1.0 mL/min, samples were injected in a volume of 20 μL, and the column temperature was 30 °C. A value of 210 nm as the detection wavelength and 270 nm as the monitor wavelength were used. Retention times (tR) were measured in minutes. The dead time of the system (tD) was determined as the retention time of the KI methanol solution. Capacity factors k for individual compounds were calculated according to the formula k = (tR − tD)/tD. Log k, calculated from the capacity factor k, as used as the lipophilicity index converted to log scale.

As usually defined, the MIC is the smallest concentration in the dilution series that meets the test's criterion for growth inhibition. For `O=C(NCc1ccccc1F)c1nccnc1NCc1ccccc1F` [Compound 10a, N-(2-Fluorobenzyl)-3-((2-fluorobenzyl)amino)pyrazine-2-carboxamide], the MIC in series [1] (pH 6.6) was more than 100 µg/mL; in series [2], more than 500 µg/mL. The compound also showed a Log k in series [3] of 1.108.
As for `CO[C@H]1/C=C/O[C@@]2(C)Oc3c(C)c(O)c4c(O)c(c(/C=N/N5CCN(C)CC5)c(O)c4c3C2=O)NC(=O)/C(C)=C\C=C\[C@H](C)[C@H](O)[C@@H](C)[C@@H](O)[C@@H](C)[C@H](OC(C)=O)[C@@H]1C` [RIF, rifampicin, reference compound], in series [2], the MIC is 0.78 to 1.56 µg/mL.
With `O=C(NCc1ccc(F)cc1)c1nccnc1Cl` [Compound 11, 3-Chloro-N-(4-fluorobenzyl)pyrazine-2-carboxamide], the MIC was more than 100 µg/mL in series [1] (pH 6.6) and 250 µg/mL in series [2]. This compound gave a Log k in series [3] of −0.139.
For `O=C(O)c1cn(C2CC2)c2cc(N3CCNCC3)c(F)cc2c1=O` [CPX, ciprofloxacin, reference compound], the MIC in series [2] is 0.098 to 0.195 µg/mL.
Turning to `O=C(NCc1ccccc1F)c1nccnc1Cl` [Compound 10, 3-Chloro-N-(2-fluorobenzyl)pyrazine-2-carboxamide], the MIC in series [1] (pH 6.6) is more than 100 µg/mL; in series [2], 125 µg/mL. The Log k in series [3] is −0.154.
Regarding `O=C(NCc1cccc(Cl)c1)c1nccnc1Cl` [Compound 6, 3-Chloro-N-(3-chlorobenzyl)pyrazine-2-carboxamide], the values for the MIC in series [1] (pH 6.6) and in series [2] were 100 µg/mL and 125 µg/mL, respectively. The compound further returned a Log k in series [3] of 0.060.
In the same order, the values of `Cc1ccccc1CNC(=O)c1nccnc1Cl` [Compound 1, 3-Chloro-N-(2-methylbenzyl)pyrazine-2-carboxamide] are more than 100 µg/mL, 250 µg/mL and 0.009.
As to `Cc1ccc(CNC(=O)c2nccnc2NCc2ccc(C)cc2)cc1` [Compound 2a, N-(4-Methylbenzyl)-3-((4-methylbenzyl)amino)pyrazine-2-carboxamide], the results for the MIC in series [1] (pH 6.6), in series [1] (value in parentheses) and in series [2] were 25 µg/mL, 72 µM and more than 250 µg/mL, respectively. For the same compound, the Log k in series [3] is reported as 1.517.
Take `O=C(NCc1ccc(F)cc1)c1nccnc1NCc1ccc(F)cc1` [Compound 11a, N-(4-Fluorobenzyl)-3-((4-fluorobenzyl)amino)pyrazine-2-carboxamide]: the MIC in series [1] (pH 6.6) is more than 100 µg/mL; in series [2], more than 500 µg/mL. In series [3], this compound came in with a Log k of 1.058.
Turning to `O=C(NCc1cccc(Cl)c1)c1nccnc1NCc1cccc(Cl)c1` [Compound 6a, N-(3-Chlorobenzyl)-3-((3-chlorobenzyl)amino)pyrazine-2-carboxamide], the MIC in series [1] (pH 6.6) is more than 100 µg/mL; in series [2], more than 500 µg/mL. The Log k in series [3] was found to be 1.515.
With `O=C(NCc1cccc(C(F)(F)F)c1)c1nccnc1Cl` [Compound 12, 3-Chloro-N-(3-(trifluoromethyl)benzyl)pyrazine-2-carboxamide], the values for the MIC in series [1] (pH 6.6) and in series [2] were more than 100 µg/mL and 125 µg/mL, respectively. Also, the Log k in series [3] was 0.110.
Take `O=C(NCc1ccc(Cl)cc1)c1nccnc1Cl` [Compound 7, 3-Chloro-N-(4-chlorobenzyl)pyrazine-2-carboxamide]: the MIC in series [1] (pH 6.6) was more than 100 µg/mL; in series [2], 500 µg/mL. Further, the Log k in series [3] was 0.082.
In the case of `O=C(NCc1ccccc1Cl)c1nccnc1NCc1ccccc1Cl` [Compound 5a, N-(2-Chlorobenzyl)-3-((2-chlorobenzyl)amino)pyrazine-2-carboxamide], the MIC in series [1] (pH 6.6) is more than 100 µg/mL; in series [2], more than 500 µg/mL. The compound further yielded a Log k in series [3] of 1.542.
